Results as given in paper PMC11434850, “Biosynthesis of Piceatannol from Resveratrol in Grapevine Can Be Mediated by Cresolase-Dependent Ortho-Hydroxylation Activity of Polyphenol Oxidase” (Plants, 2024).

Test system: T1, polyphenol oxidase (PPO), cresolase activity; most likely isoform XP_010647098.3
T1 construct: pooled fractions A7 and A8; immunoreactive bands 40, 52 and faint 70 kDa; proteolytic processing possible
Assay: Michaelis-Menten / double reciprocal plot; piceatannol formation by LC-MS MRM
Format: biochemical, Vitis vinifera
Conditions: o-hydroxylation (cresolase) to piceatannol; O2, 1 mM ascorbate, 0.1 M potassium phosphate pH 7.5, room temperature, 90 min, 5 to 200 µM substrate; partially purified, mixture of A7 and A8 fractions

Km: 118 ± 49.8 µM
Compound: Oc1ccc(/C=C/c2cc(O)cc(O)c2)cc1 [trans-resveratrol, 3,4′,5-trihydroxy-trans-stilbene]
